Consider 1 compound from patent US11597739B2, “Enhancing CD8+ T cells for adoptive T cell therapy by inhibiting PTPN1 (PTP1B) and PTPN2 (TC-PTP)” (The Royal Institution for the Advancement of …, priority 2017, dated 2023).

The test system of this series is OVA expressing EG.7 lymphoma target cells. Description: Calcein-release cytotoxicity assay of OT-1 CTLs. The series is classed as cell-based, mouse. Conditions: OT-1 CD8 cells activated with inhibitor at 50 μM; 5 hours; every effector to target ratio; versus untreated, K882 or K885. The procedure:
9) Cytotoxicity Experiments
3 days before the experiment thaw a new vial of EG.7 cells. After 24 h in culture, the cells are resuspended at 5×10^4 and 100 U/ml of IFN-γ is added. The day of the experiment, the EG.7 cells are harvested, washed once with HBSS. The EG.7 cells are resuspended at 10^6/ml in HBSS and 10 μM Calcein-AM added. The cells are incubated at 37° C. for 1 hr in the dark, washed twice with complete RPMI and counted. They are then resuspend at 3×10^5/ml.
The following wells from a 0.75×10^6/ml suspension of the CD8 (Effector) cells to have different effector to target ratios are prepared in duplicate. Before plating the effector cells, RPMI complete is added, 50 μl to the 5:1 ratio wells and 90 μl to the 1:1 ratio wells. • 75×10^3 (100 μl) 25:1 ratio. • Dilute the suspension 1:2.5 volumes: • 30×10^3 (100 μl) 10:1 ratio. • 15×10^3 (50 μl) 5:1 ratio. • 3×10^3 (10 μl) 1:1 ratio. • Prepare at least 2 wells with 100 μl of RPMI complete.
100 μl of EG.7 (Target) cells is added and spin at 400×g for 2 minutes, RT. […]
For Controls: Background fluorescence (BF): Harvest 100 μl supernatant from control wells. Absolut fluorescence (AF): Add 100 μl of methanol to the control wells harvested for background. […]
Calculate the specific cell lysis as follows: Specific cell lysis=((Sample−BF)/(AF−BF))×100 10) Flow Cytometry 1. […] Record cell quantity transfers per tube; • b. […]

As for `CCOC(=O)c1cc2cc(C(F)(F)P(=O)(O)O)c(Br)cc2s1` [Ex. 1, ((6-BROMO-2-(ETHOXYCARBONYL)BENZO[B]THIOPHEN-5-YL)DIFLUOROMETHYL)PHOSPHONATE], the “specific cytotoxicity (lysis of EG.7 cells)” value was “lysed EG.7 cells with greater efficiency”.
